Reference: patent US20230096028A1, “BICYCLIC HETEROCYCLYL COMPOUNDS AND USES THEREOF” (Revolution Medicines, Inc., priority 2019, published 2023)
Where two headings read alike, the source gives them in different places.

Experiments:
[1] = system: PC-9 cells (EGFR Ex19Del); experiment: Potency Assay: pERK (SOS1 pERK IC50 Assay, AlphaLISA SureFire Ultra p-ERK1/2); format: cell-based; conditions: Homo sapiens, read-out: SOS1 pERK IC50
Protocol: The purpose of this assay is to measure the ability of test compounds to inhibit SOS1 function in cells. SOS1 activates RAS proteins by catalyzing the conversion of RAS GDP to RAS GTP in response to receptor tyrosine kinase activation. […] The procedure described below measures the level of cellular pERK in response to test compounds in PC-9 cells (EGFR Ex19Del).
PC-9 cells were grown and maintained using media and procedures recommended by the ATCC. On the day prior to compound addition, cells were plated in 384-well cell culture plates (40 μL/well) and grown overnight in a 37° C., 5% CO2 incubator. Test compounds were prepared in 10, 3-fold dilutions in DMSO, with a top concentration of 10 mM. On the day of the assay, 40 nL of test compound was added to each well of cell culture plate using an Echo550 liquid handler (LabCyte). Concentrations of test compound were tested in duplicate with highest test concentration being 10 μM. After compound addition, cells were incubated for 1 hour at 37° C., 5% CO2. Following incubation, culture medium was removed and cells were washed once with phosphate buffered saline.
Cellular pERK level was determined using the AlphaLISA SureFire Ultra p-ERK1/2 Assay Kit (PerkinElmer). Cells were lysed in 25 μL lysis buffer, with shaking at 600 RPM at room temperature for 15 minutes. Lysate (10 μL) was transferred to a 384-well Opti-plate (PerkinElmer) and 5 μL acceptor mix was added. The plate was centrifuged at 1000 RPM for 1 minute, and incubated in the dark for 2 hours. Following this incubation, 5 μL of donor mix was added, the plate was sealed and centrifuged at 1000 RPM for 1 minute, and the mixture was incubated for 2 hours at room temperature. Signal was read on an Envision plate reader (PerkinElmer) using standard AlphaLISA settings. Analysis of raw data was carried out in Excel (Microsoft) and Prism (GraphPad). Signal was plotted vs. the decadal logarithm of compound concentration, and IC50 was determined by fitting a 4-parameter sigmoidal concentration response model.

[2] = target: T1, SOS1 catalytic domain (residues 564-1049) (Homo sapiens, UniProt Q07889); experiment: Mode of Action Assay: inhibition of SOS1 nucleotide exchange activity (SOS1 TR-FRET IC50 Assay)
T1 sequence (Q07889 564-1049): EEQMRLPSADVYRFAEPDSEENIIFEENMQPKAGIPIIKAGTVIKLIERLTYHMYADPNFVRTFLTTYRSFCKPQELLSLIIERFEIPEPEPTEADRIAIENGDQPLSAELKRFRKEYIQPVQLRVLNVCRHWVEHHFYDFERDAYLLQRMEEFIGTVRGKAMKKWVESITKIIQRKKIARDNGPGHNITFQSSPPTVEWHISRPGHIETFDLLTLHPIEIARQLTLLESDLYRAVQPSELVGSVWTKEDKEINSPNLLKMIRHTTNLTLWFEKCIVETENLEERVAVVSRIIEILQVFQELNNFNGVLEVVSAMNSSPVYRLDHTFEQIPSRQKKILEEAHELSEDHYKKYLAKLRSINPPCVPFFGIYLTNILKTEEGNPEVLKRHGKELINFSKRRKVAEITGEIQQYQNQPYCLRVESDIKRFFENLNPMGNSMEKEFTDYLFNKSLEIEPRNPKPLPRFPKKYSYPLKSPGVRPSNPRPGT

[3] = PC-9 cells (EGFR Ex19Del), 1 hour incubation, AlphaLISA p-ERK1/2

IC50 [1, 3] [µM]	IC50 [2] [µM]	Compound	IC50 ([1]; PC-9, 1 h) [µM]
> 1	> 1	C[C@@H](Nc1nc(Cl)nc2c1CN(C(=O)C13CCC(CC1)O3)CC2)c1cc(N)cc(C(F)(F)F)c1 [Example 218]	
> 1	> 1	C[C@@H](Nc1nc(Cl)nc2c1CN(C(=O)C13COC(CCO1)C3)CC2)c1cc(N)cc(C(F)(F)F)c1 (stereo partly drawn) [Example 220]	
> 1	> 1	COC1(C(=O)N2CCc3nc(Cl)nc(N[C@H](C)c4cc(N)cc(C(F)(F)F)c4)c3C2)CCCOC1 (stereo partly drawn) [Example 224]	
> 1	> 1	C[C@@H](Nc1nc(Cl)nc2c1CN(C(=O)c1cc(N3CCOCC3)nc(N3CCOCC3)n1)CC2)c1cc(N)cc(C(F)(F)F)c1 [Example 230]	
> 1	< 1	COc1cccc(C(=O)N2CCc3nc(Cl)nc(N[C@H](C)c4cc(N)cc(C(F)(F)F)c4)c3C2)n1 [Example 242]	
> 1	> 1	C[C@@H](Nc1nc(Cl)nc2c1CN(C(=O)c1cncc(N3CCOCC3)n1)CC2)c1cc(N)cc(C(F)(F)F)c1 [Example 243]	
> 1	> 1	COc1ccc(C(=O)N2CCc3nc(Cl)nc(N[C@H](C)c4cc(N)cc(C(F)(F)F)c4)c3C2)nc1 [Example 245]	
> 1	> 1	C[C@@H](Nc1nc(Cl)nc2c1CN(C(=O)c1ccc3c(n1)OCCO3)CC2)c1cc(N)cc(C(F)(F)F)c1 [Example 249]	
> 1	> 1	C[C@@H](Nc1nc(Cl)nc2c1CN(C(=O)c1cccc(Cl)n1)CC2)c1cc(N)cc(C(F)(F)F)c1 [Example 252]	
< 1	< 1	COC1COCCC1CC(=O)N1Cc2nc(Cl)nc(N[C@H](C)c3cc(N)cc(C(F)(F)F)c3)c2C1 (stereo partly drawn) [Example 258]	
< 1	< 1	COC1(C(=O)N2Cc3nc(Cl)nc(N[C@H](C)c4cccc(C(F)(F)CO)c4)c3C2)CN(C2COC2)C1 [Example 267]	
> 1	< 1	C[C@@H](Nc1nc(Cl)nc2c1CN(C(=O)C1CNC1)C2)c1cc(N)cc(C(F)(F)F)c1 [Example 268]	
> 1	< 1	C[C@@H](Nc1nc(Cl)nc2c1CN(C(=O)[C@H]1[C@@H]3CNC[C@@H]31)C2)c1cc(N)cc(C(F)(F)F)c1 [Example 269]	
< 1	< 1	C[C@@H](Nc1nc(Cl)nc2c1CN(C(=O)C13COCC(CO1)C3)C2)c1cc(N)cc(C(F)(F)F)c1 (stereo partly drawn) [Example 273]	
< 1	< 1	C[C@@H](Nc1nc(Cl)nc2c1CN(C(=O)C1OCCN(C)C1=O)C2)c1cccc(C(F)F)c1F (stereo partly drawn) [Example 301]	
> 1	< 1	C[C@@H](Nc1nc(Cl)nc2c1CN(C(=O)[C@@H]1COC[C@@H]1N)C2)c1cccc(C(F)F)c1F [Example 308]	
< 1	< 1	C[C@@H](Nc1nc(Cl)nc2c1CN(C(=O)N1CCOc3cccnc31)C2)c1cccc(C(F)(F)F)c1 [Example 368]	
< 1	< 1	C[C@@H](Nc1nc(Cl)nc2c1CN(C(=O)N1CCc3ncccc31)C2)c1cccc(C(F)(F)F)c1 [Example 371]	

IC50 [1, 3] [µM]	IC50 [2] [µM]	Compound	IC50 ([1]; PC-9, 1 h) [µM]
< 1	< 1	C[C@@H](Nc1nc(Cl)nc2c1CN(C(=O)N1CCNc3ccccc31)C2)c1cccc(C(F)(F)F)c1 [Example 372]	
< 1	< 1	C[C@@H](Nc1nc(Cl)nc2c1CN(C(=O)N1CCNC3CC31)C2)c1cccc(C(F)(F)F)c1 (stereo partly drawn) [Example 379]	
> 1	< 1	C[C@@H](Nc1nc(Cl)nc2c1C[C@H](N1CCOCC1)CC2)c1cccc(C(F)F)c1F [Example 441]	
> 1	> 1	COC1CN([C@@H]2CCc3ncnc(N[C@H](C)c4cccc(C(F)F)c4F)c3C2)C1 [Example 443]	
> 1	> 1	CC(Nc1nc(Cl)nc2c1CN(C(=O)N1CCOCC1)C2)c1cccc(S(F)(F)(F)(F)F)c1 (stereo not drawn) [Example 462, [2-chloro-4-[1-[3-(pentafluoro-sulfanyl)phenyl]ethylamino]-5,7-dihydropyrrolo[3,4-d]pyrimidin-6-yl]-morpholino-methanone]	
> 1	> 1	CC(Nc1nc(Cl)nc2c1CN(C(=O)N1CCOCC1)C2)c1cc(C(F)(F)F)ccn1 (stereo not drawn) [Example 472, 2-chloro-6-(morpholine-4-carbonyl)-N-{1-[4-(trifluoromethyl)pyridin-2-yl]ethyl}-5H,6H,7H-pyrrolo[3,4-d]pyrimidin-4-amine]	
> 1	> 1	C[C@@H](Nc1nc(Cl)nc2c1CN(C(=O)N1CCOCC1)C2)c1cccc(C(F)(F)F)n1 [Example 473, 2-chloro-6-(morpholine-4-carbonyl)-N-[(1R)-1-[6-(trifluoromethyl)pyridin-2-yl]ethyl]-5H,6H,7H-pyrrolo[3,4-d]pyrimidin-4-amine]	
> 1	> 1	C[C@@H](Nc1nc(Cl)nc2c1CN(C(=O)N1CCOCC1)C2)c1cnc(C(F)(F)F)s1 [Example 474, 2-chloro-6-(morpholine-4-carbonyl)-N-[(1R)-1-[2-(trifluoromethyl)-1,3-thiazol-5-yl]ethyl]-5H,6H,7H-pyrrolo[3,4-d]pyrimidin-4-amine]	
> 1	> 1	COC(F)(F)c1cccc([C@@H](C)Nc2nc(Cl)nc3c2CN(C(=O)N2CCOCC2)C3)c1 [Example 475, 2-chloro-N-[(1R)-1-{3-[difluoro(methoxy)methyl]phenyl}ethyl]-6-(morpholine-4-carbonyl)-5H,6H,7H-pyrrolo[3,4-d]pyrimidin-4-amine]	
> 1	> 1	C[C@@H](Nc1nc(Cl)nc2c1CN(C(=O)N1CCOCC1)C2)c1cncc(C(F)(F)F)c1 [Example 480, 2-chloro-6-(morpholine-4-carbonyl)-N-[(1R)-1-[5-(trifluoromethyl)pyridin-3-yl]ethyl]-5H,6H,7H-pyrrolo[3,4-d]pyrimidin-4-amine]	
> 1	> 1	COc1c(C(F)F)cccc1C(C)Nc1nc(Cl)nc2c1CN(C(=O)N1CCOCC1)C2 (stereo not drawn) [Example 494]	
> 1	> 1	C[C@@H](Nc1nc(Cl)nc2c1CN(C(=O)N1CCOCC1)C2)c1ccc2cc[nH]c2c1 [Example 495]	
> 1	> 1	CC(Nc1nc(Cl)nc2c1CN(C(=O)N1CCOCC1)C2)c1cccc(S(C)(=O)=O)c1 (stereo not drawn) [Example 497]	
< 1	> 1	CC(Nc1nc(Cl)nc2c1CN(C(=O)N1CCOCC1)C2)c1cccc(C(F)(F)F)c1Cl (stereo not drawn) [Example 498]	
< 1	> 1	Cc1c(C(C)Nc2nc(Cl)nc3c2CN(C(=O)N2CCOCC2)C3)cccc1C(F)(F)F (stereo not drawn) [Example 499]	
> 1	< 1	CC(CO)c1cccc(C(C)Nc2nc(Cl)nc3c2CN(C(=O)N2CCOCC2)C3)c1 (stereo not drawn) [Example 500, 2-[3-(1-{[2-Chloro-6-(morpholine-4-carbonyl)-5H,6H,7H-pyrrolo[3,4-d]pyrimidin-4-yl]amino}ethyl)phenyl]propan-1-ol]	
> 1	< 1	CC(Nc1nc(Cl)nc2c1CN(C(=O)N1CCOCC1)C2)c1cccc(CCO)c1 (stereo not drawn) [Example 501, 2-[3-(1-{[2-chloro-6-(morpholine-4-carbonyl)-5H,6H,7H-pyrrolo[3,4-d]pyrimidin-4-yl]amino}ethyl)phenyl]ethan-1-ol]	

Compound	IC50 [1, 3] [µM]	IC50 [2] [µM]	IC50 ([1]; PC-9, 1 h) [µM]
C[C@@H](Nc1nc(Cl)nc2c1CN(C(=O)N1CCOCC1)C2)c1csc(C(F)F)c1F [Example 481, 2-chloro-N-[(1R)-1-[5-(difluoromethyl)-4-fluorothiophen-3-yl]ethyl]-6-(morpholine-4-carbonyl)-5H,6H,7H-pyrrolo[3,4-d]pyrimidin-4-amine]		> 1	> 1
